# According to patent US20100035755A1, “METHOD OF CONTROLLING WEEDS IN A TURF GRASS BY USING SULFONYLUREA COMPOUNDS” (Moghu Research Center Ltd., priority 2008, published 2010):
# What was measured:
# Perennial rye grass = test: Turf grass selectivity, greenhouse pot test; assay type: in vivo
# Source text: (§1) Turf mats of Zoysia grass, bentgrass, Kentucky bluegrass, or perennial rye grass known as cool season turfgrass or western grass were purchased and cut into a piece having 10 cm×20 cm size. Then, each piece was transplanted in a rectangular plastic pot (surface area of 300 cm^2) in which sandy loam and mixed top soil (Boo-Nong Top Soil No. 3, for horticultural use) are filled in 1:1 ratio. After the transplantation, the grasses were cut once a week to maintain the blade height at 0.5-1.0 cm and cultivated for one month in a green house of which temperature was kept at 25˜30° C. for daytime and 15˜25° C. for nighttime, respectively. Then, the ‘test chemical’ of the above Examples 1 and 2 or ‘control chemical’ was applied thereto in an amount of 400, 200, 100, 50, 25, 12, 6, 3 g ai/ha. As a “control chemical”, pyrazolsulfuron ethyl wettable agent (manufactured by Dongbu Fine Chemicals; herein after, referred to as ‘control chemical No. 1’) and flazasulfuron (manufactured by Dongbu HiTek; herein after, referred to as ‘control chemical No. 2’), both sulfonylurea herbicides for a turf grass, were used. Application was carried out by using a track sprayer (R&D Sprayer, USA) equipped with Teejet 8002 nozzle (Spraying Systems Co., USA), and the application amount was adjusted to 2,000 L/ha, which is a typical application amount for a golf course in Korea. Application solution was prepared by diluting the “test chemical” or the “control chemical” with tap water. […] The test was repeated three times in a random arrangement and the results are given in average value of each test (see Table 2 below).
# Zoysia japonica [1] = test: Turf grass selectivity, greenhouse pot test; assay type: in vivo; conditions: Zoysia japonica
# Source text: as §1
# Dandelion = test: Weed spectrum, greenhouse pot test; assay type: in vivo; conditions: two weeks after application
# Kentucky bluegrass = test: Actual field condition test of Example 1 (golf course); assay type: in vivo, Poa pratensis; conditions: 100 g ai/ha, twenty days after application
# Experimental: (§2) The test chemical of the Example 1 was applied to a turf grass field, in which Digitaria sanguinalis as a representative summer-time poaceae weed and Kyllinga brevifolia as a representative hard-to-control perennial cyperaceae weed are thriving predominantly, to evaluate weed control effect of the compound. The experiment was carried out from May to July, 2008 in the Dae-duk Research Park golf course (Doryong-dong, Yusong-gu, Daejon, South Korea). At the time of the chemical application, Digitaria sanguinalis was at about 4-leaf stage and Kyllinga brevifolia was at growth period.
# Zoysia japonica [2] = test: as above; assay type: in vivo; conditions: 100 g ai/ha, twenty days after application
# Experimental: as §2
compound,measurement,setting,value
"CCOC(=O)c1cnn(C)c1S(=O)(=O)NC(=O)Nc1nc(OC)cc(OC)n1 [Control chemical No. 1, Pyrazosulfuron ethyl, reference compound]",phytotoxicity (visual assessment 0-10),"Perennial rye grass; 3 g ai/ha, 2 weeks",0
same,phytotoxicity (visual assessment 0-10),"Perennial rye grass; 3 g ai/ha, 4 weeks",0
same,phytotoxicity (visual assessment 0-10),"Perennial rye grass; 6 g ai/ha, 2 weeks",0
same,phytotoxicity (visual assessment 0-10),"Perennial rye grass; 6 g ai/ha, 4 weeks",0
same,phytotoxicity (visual assessment 0-10),"Perennial rye grass; 12 g ai/ha, 2 weeks",0
same,phytotoxicity (visual assessment 0-10),"Perennial rye grass; 12 g ai/ha, 4 weeks",0
same,phytotoxicity (visual assessment 0-10),"Perennial rye grass; 25 g ai/ha, 2 weeks",0
same,phytotoxicity (visual assessment 0-10),"Perennial rye grass; 25 g ai/ha, 4 weeks",0
same,phytotoxicity (visual assessment 0-10),"Perennial rye grass; 50 g ai/ha, 2 weeks",0
same,phytotoxicity (visual assessment 0-10),"Perennial rye grass; 50 g ai/ha, 4 weeks",0
same,phytotoxicity (visual assessment 0-10),"Perennial rye grass; 100 g ai/ha, 2 weeks",0
same,phytotoxicity (visual assessment 0-10),"Perennial rye grass; 100 g ai/ha, 4 weeks",0
same,phytotoxicity (visual assessment 0-10),"Perennial rye grass; 200 g ai/ha, 2 weeks",0
same,phytotoxicity (visual assessment 0-10),"Perennial rye grass; 200 g ai/ha, 4 weeks",0
same,phytotoxicity (visual assessment 0-10),"Perennial rye grass; 400 g ai/ha, 2 weeks",1
same,phytotoxicity (visual assessment 0-10),"Perennial rye grass; 400 g ai/ha, 4 weeks",0
same,phytotoxicity (visual assessment 0-10),"Zoysia japonica [1]; 3 g ai/ha, 2 weeks",0
same,phytotoxicity (visual assessment 0-10),"Zoysia japonica [1]; 3 g ai/ha, 4 weeks",0
same,phytotoxicity (visual assessment 0-10),"Zoysia japonica [1]; 6 g ai/ha, 2 weeks",0
same,phytotoxicity (visual assessment 0-10),"Zoysia japonica [1]; 6 g ai/ha, 4 weeks",0
same,phytotoxicity (visual assessment 0-10),"Zoysia japonica [1]; 12 g ai/ha, 2 weeks",0
same,phytotoxicity (visual assessment 0-10),"Zoysia japonica [1]; 12 g ai/ha, 4 weeks",0
same,phytotoxicity (visual assessment 0-10),"Zoysia japonica [1]; 25 g ai/ha, 2 weeks",0
same,phytotoxicity (visual assessment 0-10),"Zoysia japonica [1]; 25 g ai/ha, 4 weeks",0
same,phytotoxicity (visual assessment 0-10),"Zoysia japonica [1]; 50 g ai/ha, 2 weeks",0
same,phytotoxicity (visual assessment 0-10),"Zoysia japonica [1]; 50 g ai/ha, 4 weeks",0
same,phytotoxicity (visual assessment 0-10),"Zoysia japonica [1]; 100 g ai/ha, 2 weeks",0
same,phytotoxicity (visual assessment 0-10),"Zoysia japonica [1]; 100 g ai/ha, 4 weeks",0
same,phytotoxicity (visual assessment 0-10),"Zoysia japonica [1]; 200 g ai/ha, 2 weeks",0
same,phytotoxicity (visual assessment 0-10),"Zoysia japonica [1]; 200 g ai/ha, 4 weeks",0
same,phytotoxicity (visual assessment 0-10),"Zoysia japonica [1]; 400 g ai/ha, 2 weeks",0
same,phytotoxicity (visual assessment 0-10),"Zoysia japonica [1]; 400 g ai/ha, 4 weeks",0
same,efficacy (0-100 scale),"Dandelion; Post-emergence, 12 g ai/ha",80
same,efficacy (0-100 scale),"Dandelion; Post-emergence, 25 g ai/ha",90
same,efficacy (0-100 scale),"Dandelion; Post-emergence, 50 g ai/ha",100
same,efficacy (0-100 scale),"Dandelion; Post-emergence, 100 g ai/ha",100
same,efficacy (0-100 scale),"Dandelion; Pre-emergence, 12 g ai/ha",70
same,efficacy (0-100 scale),"Dandelion; Pre-emergence, 25 g ai/ha",80
same,efficacy (0-100 scale),"Dandelion; Pre-emergence, 50 g ai/ha",90
same,efficacy (0-100 scale),"Dandelion; Pre-emergence, 100 g ai/ha",100
same,phytotoxicity in actual field condition,Kentucky bluegrass,0
same,phytotoxicity in actual field condition,Zoysia japonica [2],0
